# Assays:
# Assay type in all cases: functional
# [1] = system: NCI-H322M; assay: Growth inhibition of human NCI-H322M cells after 48 hrs by sulforhodamine B assay
# [2] = Growth inhibition of human EKVX cells after 48 hrs by sulforhodamine B assay
# [3] = system: NCI-H460; assay: Growth inhibition of human NCI-H460 cells after 48 hrs by sulforhodamine B assay; conditions: NCI-H460, 48 h
# [4] = system: SNB-75; assay: Growth inhibition of human SNB75 cells after 48 hrs by sulforhodamine B assay; conditions: SNB-75, 48 h
# [5] = system: A549; assay: Growth inhibition of human A549 cells after 48 hrs by sulforhodamine B assay; conditions: A549, 48 h
# [6] = system: SF-539; assay: Growth inhibition of human SF539 cells after 48 hrs by sulforhodamine B assay; conditions: SF-539, 48 h
# [7] = system: SK-MEL-28; assay: Growth inhibition of human SK-MEL-28 cells after 48 hrs by sulforhodamine B assay; conditions: SK-MEL-28, 48 h
# [8] = system: HCT-116; assay: Growth inhibition of human HCT116 cells after 48 hrs by sulforhodamine B assay; conditions: HCT-116, 48 h
# [9] = system: SNB-19; assay: Growth inhibition of human SNB19 cells after 48 hrs by sulforhodamine B assay; conditions: SNB-19, 48 h
# [10] = system: HOP-62; assay: Growth inhibition of human HOP62 cells after 48 hrs by sulforhodamine B assay; conditions: HOP-62, 48 h
# [11] = system: HCT-15; assay: Growth inhibition of human HCT15 cells after 48 hrs by sulforhodamine B assay; conditions: HCT-15, 48 h
# [12] = system: Malme-3M; assay: Growth inhibition of human MALME-3M cells after 48 hrs by sulforhodamine B assay
# [13] = system: SK-MEL-2; assay: Growth inhibition of human SK-MEL-2 cells after 48 hrs by sulforhodamine B assay; conditions: SK-MEL-2, 48 h
# [14] = system: NCI-H23; assay: Growth inhibition of human NCI-H23 cells after 48 hrs by sulforhodamine B assay; conditions: NCI-H23, 48 h
# [15] = system: NCI-H522; assay: Growth inhibition of human NCI-H522 cells after 48 hrs by sulforhodamine B assay; conditions: NCI-H522, 48 h
# [16] = system: HT-29; assay: Growth inhibition of human HT-29 cells after 48 hrs by sulforhodamine B assay; conditions: HT-29, 48 h
# [17] = system: SF-295; assay: Growth inhibition of human SF295 cells after 48 hrs by sulforhodamine B assay; conditions: SF-295, 48 h
# [18] = system: KM12; assay: Growth inhibition of human KM12 cells after 48 hrs by sulforhodamine B assay; conditions: KM12, 48 h
# [19] = system: SF-268; assay: Growth inhibition of human SF268 cells after 48 hrs by sulforhodamine B assay; conditions: SF-268, 48 h
# [20] = system: SW-620; assay: Growth inhibition of human SW620 cells after 48 hrs by sulforhodamine B assay; conditions: SW-620, 48 h
# [21] = system: UACC-257; assay: Growth inhibition of human UACC257 cells after 48 hrs by sulforhodamine B assay; conditions: UACC-257, 48 h
# [22] = Growth inhibition of human HCC2998 cells after 48 hrs by sulforhodamine B assay; conditions: HCC 2998, 48 h
# [23] = system: LOX IMVI; assay: Growth inhibition of human LOXIMVI cells after 48 hrs by sulforhodamine B assay
# [24] = system: M14; assay: Growth inhibition of human M14 cells after 48 hrs by sulforhodamine B assay; conditions: M14, 48 h
# [25] = system: SK-MEL-5; assay: Growth inhibition of human SK-MEL-5 cells after 48 hrs by sulforhodamine B assay; conditions: SK-MEL-5, 48 h
# [26] = system: U-251; assay: Growth inhibition of human U251 cells after 48 hrs by sulforhodamine B assay; conditions: U-251, 48 h
# [27] = system: MDA-MB-435; assay: Growth inhibition of human MDA-MB-435 cells after 48 hrs by sulforhodamine B assay; conditions: MDA-MB-435, 48 h
# [28] = system: NCI-H226; assay: Growth inhibition of human NCI-H226 cells after 48 hrs by sulforhodamine B assay; conditions: NCI-H226, 48 h
# [29] = system: COLO 205; assay: Growth inhibition of human COLO205 cells after 48 hrs by sulforhodamine B assay; conditions: COLO 205, 48 h
structure (smiles),measurement,setting,value
Cn1n[n+](C)c2c1C(=O)c1ccccc1C2=O,GI50,[1],280 nM
same,GI50,[2],1210 nM
same,GI50,[3],300 nM
same,GI50,[4],1680 nM
same,GI50,[5],320 nM
same,GI50,[6],1350 nM
same,GI50,[7],1610 nM
same,GI50,[8],680 nM
same,GI50,[9],1590 nM
same,GI50,[10],1540 nM
same,GI50,[11],1610 nM
same,GI50,[12],150 nM
same,GI50,[13],1570 nM
same,GI50,[14],620 nM
same,GI50,[15],1410 nM
same,GI50,[16],1140 nM
same,GI50,[17],1050 nM
same,GI50,[18],790 nM
same,GI50,[19],950 nM
same,GI50,[20],1150 nM
same,GI50,[21],1790 nM
same,GI50,[22],1240 nM
same,GI50,[23],500 nM
same,GI50,[24],680 nM
same,GI50,[25],380 nM
same,GI50,[26],1270 nM
same,GI50,[27],200 nM
same,GI50,[28],510 nM
same,GI50,[29],1010 nM
